The values below come from patent US6590123B2, “Aminobenzoic acid derivatives having anti-tumorigenic activity, methods of making and using the same” (Mount Sinai School of Medicine of New York University, priority 1998, dated 2003).

Assay [1] deals with repolymerized microtubules. The assay can be described thus: Inhibition of microtubule disassembly by spectrophotometry, cell free system. Particulars: 20 μg/ml (66 μM). Format: biochemical, calf. The protocol:
Purified tubulin was purchased from Sigma (St. Louis, Mo.). The effects of compounds 6, 7, 8, 9, paclitaxel and vinblastine on the microtubule assembly-disassembly process were determined using conditions recommended by the vendor. For assembly inhibition, 100 μl tubulin solution (500-600 μg protein/ml) was mixed gently with 400 μl reaction buffer containing 0.1 M MES (2-[N-morpholino]ethane sulfonic acid), 1 mM EGTA ([…]-N,N,N′,N′-tetraacetic acid), 0.5 mM MgCl2, 0.1 mM EDTA and 2.5 M gycerol at 37° C. Compounds 6, 7, 8, and 9 were next added to each sample at final concentrations of 10, 10, 1 and 1 μg/ml, respectively. After adding GTP to each sample to a final concentration of 1 mM, the microtubule assembly process was monitored by measuring the change of absorbance (OD) at 350 nm on a spectrophotometer (Ultrospec III, Pharmacia LKB, Uppsala, Sweden). […] Changes of absorbance (OD) were monitored at 350 nm for 30 min until the OD values in the controls returned to the starting level, i.e., when the assembly-disassembly cycle was completed.
Purified tubulin from calf brain was purchased from Sigma (St. Louis, Mo.). The effects of 3-BAABU (3-bromoacetoamido, benzoylurea) on the microtubule assembly-disassembly process were determined using the conditions recommended by the vendor. […]

Another assay has as its system SP cells. Briefly: Block of mitosis, morphology by microscopy. It is filed as cell-based, human. Also on record: key to Block of Mitosis: +Block of mitosis was observed; −no mitotic blocking. The protocol: (§1) All cell lines, with the exception of human SP cells, a biphenotypic leukemic cell line (reference 10 & 11), were obtained from the American Tissue Culture Collection (Rockville, Md.) and were cultured under conditions recommended by the vendor. EL4 murine leukemia lymphoma (as suspension) and B16 mouse melanoma (as monolayer) cell lines were cultivated in RPMI-1640 medium supplemented with 10% fetal bovine serum (FBS), penicillin (250 μ/ml) and streptomycin (250 μml); MOT, a non-tumor proliferative myocardial cell line from rat and NIH 3T3, a non-malignant and proliferative fibroblast cell line from mouse were both cultured as monolayers in Dulbecco's Modified Eagle's Medium with 10% heat inactivated calf serum. CEM, a human acute T-cell leukemic cell line, was cultured as a suspension in Iscove's Dulbecco's Medium with 10% heat inactivated fetal calf serum and antibiotics. PC-3 cells, a human prostate cancer line, was cultured as monolayers in RPMI-1640 with 10% FBS. SP cells were cultured in Minimum Eagle's Medium plus 10% FBS. Human peripheral blood lymphocytes (PBL) were isolated from whole blood of healthy individuals by Ficoll-Hypaque gradient method. Isolated PBL were maintained in RPMI-1640 in the presence of 10% homologous plasma at 37° C. All cells were incubated at 37° C. in 5% C02. Cells in exponential growth were used.
(§2) Cell samples on slides were prepared by a Cytospin centrifuge (Shandon Southern Products Ltd, England) at 700 g for 5 min. The slides were air dried, fixed in methanol and stained with Giemsa (Harleco, N.J.) at room temperature for 15 min. Alterations of nuclei, membranes and morphological features were observed by light microscopy. Cells in mitotic phase were recognized by the appearance of their chromosomes dispersed in the cytoplasm, and by the disappearance of nuclear membrane. Apoptotic-cells were identified using previously defined criteria, i.e., shrinkage in cell size, chromatin condensation and fragmentation of the nucleus into discrete masses (references 2 & 3). Necrotic cells were differentiated from apoptotic cells by observing swollen cytoplasm and the disappearance of cell membrane prior to the destruction of the nucleus.

A further assay concerns PC-3 cells. Briefly: Block of mitosis, morphology by microscopy. It is filed as cell-based, human. Also noted: key to Block of Mitosis: +Block of mitosis was observed; −no mitotic blocking. The protocol:
as §1, §2

Assay [2] concerns mitotic spindles (β-tubulin) in CEM cells. Briefly: Immunofluorescent detection of mitotic spindles. Format: cell-based, human. Particulars: for Antimicrotubule: CEM cells, 0.025 μg/ml, immunofluorescent staining. The protocol:
[…] After incubation, cells were washed twice in PBS. Cell pellets were resuspended in drug-free medium and incubated for 48 hr at 37° C. Cell viability, morphology, mitotic spindles, cell cycle distribution and apoptosis were determined 24 hr and 48 hr post pulse exposure.
CEM cells incubated in the absence or presence of 3-BAABU were collected and centrifuged in a Cytospin at 700 g for 5 min. The slides were air dried and fixed with methanol for 20 min at −20° C. The slides were incubated in PBS containing. 1% BSA at 37° C. for 30 min. After washing with PBS for 3 min, cells on the slides were covered with 30 μl anti-human β-tubulin monoclonal antibody (4 μg/ml) (Accurate Antibody, Westbury, N.Y.) and placed in a humid chamber at room temperature for 60 min. The slides were washed three times for 3 min each in PBS followed by staining with 10 μl FITC labeled goat anti-mouse antibody (Coulter, Hialeah, Fla.) in a humid chamber at room temperature for 60 min. After washing in, PBS, the immunofluorescent stained cells were visualized under a fluorescence microscope (Model MC 63, Zeiss, Germany).

The subject of another assay is MOT myocardial cell line. Briefly: Block of mitosis, morphology by microscopy. It is filed as cell-based, rat. Also noted: key to Block of Mitosis: +Block of mitosis was observed; −no mitotic blocking. The protocol:
as §1, with “used. […]” for “used.”

Assay [3] concerns NIH 3T3 fibroblast cell line. Briefly: Block of mitosis, morphology by microscopy. It is filed as cell-based, mouse. Also on record: key to Block of Mitosis: +Block of mitosis was observed; −no mitotic blocking. The protocol: as §1, with “used. […]” for “used.”

In the case of `NC(=O)NC(=O)c1cccc(NC(=O)CBr)c1` [Compound 8, 3-Bromoacetoamido, benzoylurea], in assay [1], the “effect on microtubular depolymerization” value is listed as “not influenced”. Further, the morphologic effect result with SP cells (SP human lymphoid leukemic cells, 0.025 μg/ml, 24 hr at 37° C.) is “induced mitotic arrest”; in the assay on PC-3 cells (PC-3 human prostate cancer cells, 0.1 μg/ml, 24 hr at 37° C.), “induced mitotic arrest”; with MOT myocardial cell line (rat myocardial cells, 1.0 μg/ml, 24 hr at 37° C.) it was “no effect”; in assay [3] (murine fibroblast cells, 1.0 μg/ml, 24 hr at 37° C.) it was “no effect”. For the same compound, the “Block of Mitosis” value with SP cells (SP, Human MDS, 37° C. for 48 hr, arrest = mitotic cells >50% vs controls) is recorded as “+”; in the assay on PC-3 cells (PC-3, Human Prostate Cancer, 37° C. for 48 hr), “+”; in the assay with MOT myocardial cell line (MOT, Rat myocardiac cells (non-tumor), 37° C. for 48 hr), “−”; in assay [3] (3T3, Murine fibroblast (non-tumor), 37° C. for 48 hr), “−”. In addition, the Antimicrotubule entry in assay [2] (Continuous Exposure (24 hr; 48 hr in footnote)) and in assay [2] (Pulse Exposure (1 hr)) was “++++ (++++: >75% cells were affected)” throughout. For the same compound, in assay [2] (mitotic CEM cells arrested by the compound), the “formation of mitotic spindles, immunofluorescent staining for β-tubulin” value is “none of them showed positive staining for mitotic spindles or astral microtubules”.
